Several values for one entry are separate records, joined by “and”; a condition that tells them apart may be missing. Identical values can stand only once.
What was measured:
BRD4 BD2 = target: T1, BRD4 BD2 (Homo sapiens, UniProt O60885); assay: NanoBRET bromodomain assay, NanoLuc-BRD4-BD2 fusion vector in HEK293 cells; type: cell-based
T1 construct: HEK293 cells were transfected using NanoLuc-BRD4-BD1 or NanoLuc-BRD4-BD2 fusion vectors; host or cells: HEK293
Excerpt: Bromodomain Assay Procedure

[1] = Plasma stability assay, mouse plasma; type: in vitro ADME; conditions: 37° C., Method 1 (5 μM)
Protocol: Exemplary compounds of the disclosure are stable upon incubation in mouse plasma. Stability is expressed as a % remaining after 120 minutes. The experimental methods and results (Table 2) are provided hereinafter.
Plasma Stability Assay, Method 1
From stock solution of compound in 10 mM DMSO, a working solution of 1 mM is prepared by diluting the compound in DMSO. To 398 μL of plasma pre-warmed at 37° C. for 15 minutes), 2 μL of working solution of compound is added, resulting in a final concentration of 5 μM (0.5% DMSO) for the compound. The sample is then incubated at 37° C. Aliquot is withdrawn at specified time-points (0, 15, 30, 60 and 120 mins). The reaction is stopped by addition of 450 μL cold acetonitrile containing internal standard (IS). […] Aliquots of the supernatant is analysed using LC-MS/MS. The percent remaining of the compound at each time point is calculated with respect to the control sample (0 min time-point).
Plasma Stability Assay, Method 2
A working solution of compound (500 μM) is prepared in DMSO (100%). To 735 μL of plasma, 15 μL of working solution of compound is added—resulting in a final concentration of 10 μM (2% DMSO) for the compound. […] The samples are centrifuged and the supernatants analyzed using LC-MS/MS. The percent remaining of the compound at each time point is calculated with respect to the control sample (0 min time-point).

[2] = tested on: rat anti-collagen IgG1 antibodies; assay: CIA model: rat anti-collagen IgG1 antibodies in serum at day 21; type: in vivo, Lewis rat; conditions: for levels of rat anti-collagen IgG1 antibodies relative to CIA without treatment: day 21
Protocol: Blood was additionally collected from groups 1-7 via cardiac puncture following euthanasia on Day 21. Blood from cardiac puncture was placed in a 1.5 mL centrifuge tube without an anticoagulant and centrifuged at 8000 rcf for 15 minutes. Serum was divided into two separate tubes and stored at −75±15° C. One tube was used to analyze IgG1, and the other tube was reserved for additional analyses.
All data measured and recorded was analyzed using SPSS 16.0 software. Groups were compared using one-way ANOVA and significance was set at p<0.05.

[3] = tested on: collagen-induced arthritis in Lewis rats; assay: CIA model: histopathologic analysis of H&E-stained hind limbs; type: in vivo, Lewis rat
Excerpt: Hind limbs were collected following euthanasia, with the left limb being used for H&E staining.
H&E-stained slides of designated tissues from animals were transferred to an independent pathologist for microscopic evaluation (SPFBio). Samples were assigned the histologic grades based on the severity of change from tissue where CIA was not induced. Histology grades assigned were as follows: grade 1 (minimal change), grade 2 (mild change), grade 3 (moderate change), grade 4 (marked change), and grade 5 (severe change).
Moderate inflammation was also associated with increased edema fluid, fibrin, and cellular debris. Marked mixed cell inflammation was characterized by dense, widespread accumulations of neutrophils and macrophages with lesser number of lymphocytes within one or more joint spaces, synovium and periarticular soft tissues. Marked inflammation was also associated with abundant edema fluid, fibrin, and cellular debris.
Marked granulation tissue (pannus) was associated with inflammation and was characterized by widespread fibrovascular connective tissue that expanded/replaced the periarticular soft tissues of one or more joints, extended into/expanded joint spaces, was contiguous with areas of erosion/ulcer in articular cartilage and/or increased eroded surface of bone, and variably extended along the diaphysis.
Instances of minimal increased eroded surface were not associated with fragments of bone contiguous and/or surrounded by granulation tissue. […] In some areas, increased eroded surfaces were contiguous with areas of erosion/ulcer in the articular cartilages. Instance of marked increased eroded surface were often associated with fragments of bone contiguous with and/or surrounded by granulation tissue.
This observation was typically most pronounced at joint margins (transition zone). The ulceration was often associated with inflammation and granulation tissue extending through the defect to the subchondral bone.
Marked increased periosteal bone (periosteal bone formation) was characterized by extensive areas of increased bone matrix and numerous prominent osteoblasts lining trabecular surfaces along the metaphysis and/or diaphysis of one or more bones. In some areas, increased periosteal bone was contiguous with increased eroded surface and/or erosion/ulcer at articular cartilage.
UUO model: serum urea = type: in vivo, rat; conditions: UUO rats; 30 mg/kg; compared with sham and UUO + vehicle
Excerpt: (§1) Serum for blood biochemistry analysis was collected into centrifuge tubes without coagulant four hours after final dosing. Blood plasma samples from group 3 was collected into tubes with K2EDTA four hours after final dosing. At the conclusion of the study (end of the 14-day period), animals were euthanized. Kidney tissue was collected four hours after final dosing. Ligated side kidney was divided into three copies 1/3 fix into 10% formalin for H&E analysis, 1/3 into RNA for PCR analysis of tissue biomarkers Col1a1, TGF-b1, MCP-1, IL-1b, IL-6, IL-17, TNF-a, and Timp1, and 1/3 for hydroxyproline assay analyzed by ELISA. RNA was extracted from tissue using the RNeasy mini kit (Qiagen). RNA concentration was measured using a NanoDrop One Spectrophotometer (ThermoFisher) and converted to cDNA using a High-Capacity RNA-to-cDNA kit (Invitrogen). RT-PCR was performed to measure levels of mRNA of different targets using TaqMan® Gene Expression Master Mix and TaqMan® probe/primer sets on a QuantStudio 6 Real-Time PCR System (ThermoFisher). Fold change in target gene expression was determined using the ΔΔCt method.

[4] = tested on: Col1a1, TGF-b1, MCP-1, IL-1b, IL-6, IL-17, TNF-a, and Timp1; assay: UUO model: kidney tissue biomarker mRNA by RT-PCR; type: in vivo, rat; conditions: UUO rats; 30 mg/kg
Excerpt: as §1

[5] = Pharmacokinetics of Example 101 in Lewis rats (oral, CIA study); type: in vivo, Lewis rat; conditions: day 20, 10 mg/kg, individual test subjects
[6] = CIA rats, 30 mg/kg (Group 7), seven of eight samples
[7] = hind limbs, CIA induced, 8 animals examined, comparator groups 3-4, dose not given

## CNC(=O)c1[nH]c(C(=O)NC2CCC2)cc1O[C@@H](C)c1ccccc1 [Example 101, N^5-cyclobutyl-N^2-methyl-3-(1-phenylethoxy)-1H-pyrrole-2,5-dicarboxamide]
BRD4 BD2
  selectivity for BDII relative to GSK620: greater than about two orders of magnitude
[1]
  Plasma Stability (% remaining at 120 minutes) Mouse: >99%
[2]; 1 mg/kg, p<0.05
  levels of rat anti-collagen IgG1 antibodies relative to CIA without treatment: significantly decreased
[2]; 10 mg/kg, p<0.05
  levels of rat anti-collagen IgG1 antibodies relative to CIA without treatment: significantly decreased
[2]; 30 mg/kg, p<0.01
  levels of rat anti-collagen IgG1 antibodies relative to CIA without treatment: significantly decreased
[3]; CIA rats, 3 mg/kg (Group 5)
  articular cartilage erosion or ulcers: mild to moderate
  granulation tissue (pannus): mild to moderate
  increased eroded surface of bone (bone resorption): mild to moderate
  increased periosteal bone (periosteal bone formation): mild to moderate
  mixed cell inflammation: moderate to marked
[3]; CIA rats, 10 mg/kg (Group 6)
  erosion in the articular cartilages: moderate
  granulation tissue (pannus): moderate
  increased eroded surface of bone (bone resorption): moderate
  increased periosteal bone (periosteal bone formation): moderate
  mixed cell inflammation: moderate
[3]; CIA rats, 30 mg/kg (Group 7)
  samples with no recorded pathological observations: One out of eight samples
[3]; [6]
  erosion in the articular cartilages: mild
  granulation tissue (pannus): moderate
  increased eroded surface of bone (bone resorption): mild
  increased periosteal bone (periosteal bone formation): mild
  mixed cell inflammation: moderate
[3]; CIA rats, Groups 5-7 (3, 10, 30 mg/kg)
  pathologic observations after microscopic evaluation (overall): at lower levels relative to samples from animals in the CIA-induced group (Group 2) in a dose-dependent manner
[3]; hind limbs, CIA induced, 8 animals examined, 30 mg/kg (Group 7)
  Erosion/Ulcer, cartilaginous, Mild, number of animals: 4
UUO model: serum urea
  serum urea levels: No significant differences
[4]
  expression of IL-17 relative to UUO + vehicle: limited effect
  expression of TNF-a relative to UUO + vehicle: limited effect
  tissue RNA level of Col1a1 relative to UUO + vehicle: reduced
  tissue RNA level of IL-1b relative to UUO + vehicle: reduced
  tissue RNA level of IL-6 relative to UUO + vehicle: reduced
  tissue RNA level of MCP-1 relative to UUO + vehicle: reduced
  tissue RNA level of TGB-b1 relative to UUO + vehicle: reduced
  tissue RNA level of Timp1 relative to UUO + vehicle: reduced
[5]
  Plasma concentration at 14 h: 0.0685 µg/mL and 0.159 µg/mL and 0.185 µg/mL

## C[C@@H]1C[C@H]2[C@@H]3CCC4=CC(=O)C=C[C@]4(C)[C@@]3(F)[C@@H](O)C[C@]2(C)[C@@]1(O)C(=O)CO [dexamethasone]
[2]; day 21 serum, reference group (Dexamethasone or GSK620), before fold 2000 correction, individual animals
  Rat Anti-Collagen IgG1 Antibody Con.: 11.01 units/ml and 2.63 units/ml and 0.65 units/ml and 1.27 units/ml and 5.87 units/ml and 2.28 units/ml and 3.96 units/ml and 3.67 units/ml
[2]; day 21 serum, reference group (Dexamethasone or GSK620), individual animals
  Final Rat Anti-Collagen IgG1 Antibody Con.: 22019.88 units/ml and 5250.27 units/ml and 1296.14 units/ml and 2541.14 units/ml and 4553.59 units/ml and 7925.50 units/ml and 7346.16 units/ml
[3]; [7]
  Erosion/Ulcer, cartilaginous, Marked, number of animals: 0
  Erosion/Ulcer, cartilaginous, Mild, number of animals: 0
  Erosion/Ulcer, cartilaginous, Minimal, number of animals: 0
  Erosion/Ulcer, cartilaginous, Moderate, number of animals: 0
  Granulation tissue, Marked, number of animals: 0
  Granulation tissue, Mild, number of animals: 0
  Granulation tissue, Minimal, number of animals: 0
  Granulation tissue, Moderate, number of animals: 0
  Increased bone, periosteum, Marked, number of animals: 0
  Increased bone, periosteum, Mild, number of animals: 0
  Increased bone, periosteum, Minimal, number of animals: 0
  Increased bone, periosteum, Moderate, number of animals: 0
  Increased eroded surface, bone, Marked, number of animals: 0
  Increased eroded surface, bone, Mild, number of animals: 0
  Increased eroded surface, bone, Minimal, number of animals: 0
  Increased eroded surface, bone, Moderate, number of animals: 0
  Mixed cell inflammation, Marked, number of animals: 0
  Mixed cell inflammation, Mild, number of animals: 0
  Mixed cell inflammation, Minimal, number of animals: 0
  Mixed cell inflammation, Moderate, number of animals: 0
  No Visible Lesions, number of animals: 8
